Data reported in the supplement of paper PMC5579334.

Key:
HS-PSS [1] = assay: relative IC50 (inflection point of fitted dose-response curve, CellTox-Green cytotoxicity, 72 h; top asymptote may be below 50%); higher = less potent
Outline: (§1)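 For 72 h at 37 °C, MPNST cell lines and primary human Schwann cells were exposed in 384-well plates to five 10-fold compound dilutions. CellTox-Green, added before seeding at a final 1:1000 dilution, gave fluorescence from DNA released by disrupted cells. Signals were scaled to vehicle and positive-control wells, cultures failing plate quality control were left out, and four-parameter logistic fits were applied. Relative IC50 and drug sensitivity score were derived from the fits, with IC50 censored at the top concentration.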

STS26T [2] = assay: as above
Outline: as §1

HSC1 [3] = assay: as above
Outline: as §1

HS-Sch-2 = assay: relative IC50 (inflection point of fitted dose-response curve, CellTiter-Glo viability, 72 h; top asymptote may be below 50% inhibition); higher = less potent
Outline: (§2)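 MPNST cell lines and primary human Schwann cells were seeded at 750–1000 cells per well into 384-well plates preprinted with each compound at five concentrations in 10-fold steps, then incubated 72 h at 37 °C, 5% CO2. CellTiter-Glo ATP luminescence gave viability, scaled between vehicle and positive-control wells, with duplicates averaged where present. Curves were fitted with a four-parameter logistic model. Percent inhibition refers to the top concentration, while drug sensitivity score and relative IC50, censored at the top concentration, come from these fits.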

S462 = assay: as above
Outline: as §2

ST8814 [4] = assay: as above
Outline: as §2

S1507-2 = assay: as above
Outline: as §2

HSC2 [5] = assay: relative IC50 (inflection point of fitted dose-response curve, CellTox-Green cytotoxicity, 72 h; top asymptote may be below 50%); higher = less potent
Outline: as §1

ST8814 [6] = assay: as above
Outline: as §1

YST-1 = assay: relative IC50 (inflection point of fitted dose-response curve, CellTiter-Glo viability, 72 h; top asymptote may be below 50% inhibition); higher = less potent
Outline: as §2

HS-PSS [7] = assay: as above
Outline: as §2

STS26T [8] = assay: as above
Outline: as §2

HSC2 [9] = assay: as above
Outline: as §2

HSC1 [10] = assay: as above
Outline: as §2

SMILES | relative IC50 (HS-PSS [1]) [nM] | relative IC50 (STS26T [2]) [nM] | relative IC50 (HSC1 [3]) [nM] | relative IC50 (HS-Sch-2) [nM] | relative IC50 (S462) [nM] | relative IC50 (ST8814 [4]) [nM] | relative IC50 (S1507-2) [nM] | relative IC50 (HSC2 [5]) [nM] | relative IC50 (ST8814 [6]) [nM] | relative IC50 (YST-1) [nM] | relative IC50 (HS-PSS [7]) [nM] | relative IC50 (STS26T [8]) [nM] | relative IC50 (HSC2 [9]) [nM] | relative IC50 (HSC1 [10]) [nM]
Cn1cnc(-c2cc3nccc(Oc4ccc(NC(=S)NC(=O)Cc5ccccc5)cc4F)c3s2)c1 [MGCD-265] | > 10000 | > 10000 | > 10000 | 1730 | 2100 | 439 | 501 |  |  |  |  |  |  | 
Cc1ccc(Nc2nccc(N(C)c3ccc4c(C)n(C)nc4c3)n2)cc1S(N)(=O)=O [Pazopanib] | > 10000 | > 10000 | > 10000 |  | > 10000 | > 10000 |  | > 10000 | > 10000 | > 10000 | 605 | > 10000 |  | 
CNCc1ccc(-c2[nH]c3cc(F)cc4c3c2CCNC4=O)cc1 [Rucaparib] | > 10000 | > 10000 | > 10000 |  |  | > 10000 | > 10000 | > 10000 | > 10000 | 447 | 1040 | > 10000 | > 10000 | > 10000
Cc1cnc(NC(=O)Nc2cc(Br)c(C)cc2OC[C@@H]2CNCCO2)cn1 [Rabusertib] | > 1000 | 330 |  | 302 | 319 | > 1000 | 236 | > 1000 | > 1000 | 242 |  | 189 |  | 
Nc1ncnc2c1c(COc1cccc(Cl)c1)nn2C1CCOCC1 | > 10000 | > 10000 | > 10000 |  | > 10000 | > 10000 |  | > 10000 | > 10000 | > 10000 | > 10000 |  | > 10000 | 
CN(C)C(=N)NC(=N)N [Metformin aq] |  | > 100000 | > 100000 |  |  | > 100000 | > 100000 | > 100000 | > 100000 |  |  | > 100000 | > 100000 | > 100000
CC[C@@H]1C(=O)OC[C@@H]1Cc1cncn1C [Pilocarpine] | > 40000 | > 40000 | > 40000 |  | > 40000 | > 40000 |  | > 40000 | > 40000 | > 40000 | > 40000 | > 40000 | > 40000 | > 40000
Cc1cnc(Nc2ccc(F)cc2Cl)nc1-c1c[nH]c(C(=O)N[C@H](CO)c2cccc(Cl)c2)c1 [VX-11E] | > 2500 | 896 | 874 | 367 |  | 905 | 966 | 651 | 816 | > 2500 | 756 | 830 | 696 | 750
C=C(c1ccc(C(=O)O)cc1)c1cc2c(cc1C)C(C)(C)CCC2(C)C [Bexarotene] | > 10000 | > 10000 | > 10000 | > 10000 | > 10000 | > 10000 |  | > 10000 | > 10000 | > 10000 | > 10000 | > 10000 | > 10000 | 
CC1=C(/C=C/C(C)=C/C=C/C(C)=C/C(=O)O)C(C)(C)CCC1 [Tretinoin] | > 10000 | > 10000 | > 10000 | > 10000 | > 10000 |  |  | > 10000 | > 10000 | > 10000 | > 10000 |  |  | 361
COc1cc2/c(=N/c3ccc(Br)cc3F)nc[nH]c2cc1OCC1CCN(C)CC1 [Vandetanib] |  | > 1000 | > 1000 | > 1000 | > 1000 | > 1000 |  | > 1000 |  | > 1000 | 86.5 |  | > 1000 | > 1000
O=C(c1cc(Cc2n[nH]c(=O)c3ccccc23)ccc1F)N1CCN(C(=O)C2CC2)CC1 [Olaparib] | > 10000 | 3430 | > 10000 | 1360 | 2000 | 3540 |  |  | 3360 | 426 |  | 2330 | 1340 | 1670
CC(C)C[C@@H](C(=O)N[C@H](C(=O)OC1CCCC1)c1ccccc1)[C@H](O)C(=O)NO [Tosedostat] | > 10000 | 25.3 | > 10000 | 258 | 424 | 1240 |  | > 10000 |  | 222 | 3270 | 81.4 | 76.1 | 138
Cc1ccc(NC(=O)c2ccc(CN3CCN(C)CC3)cc2)cc1Nc1nccc(-c2cccnc2)n1 [Imatinib] |  | > 10000 | > 10000 | 3190 |  | 3530 | 1960 | > 10000 | 3580 | 1950 | 2380 |  | > 10000 | > 10000
COc1cc2c(NC3CCN(C(C)C)CC3)nc(C3CCCCC3)nc2cc1OCCCN1CCCC1 [UNC0638] | 2540 | 3390 |  | 2270 | 2730 | 2640 | 1720 | > 10000 | 2230 | 2870 | 1740 | 3500 |  | 
Cc1cccc(-c2nn3c(c2-c2ccnc4ccc(C(N)=O)cc24)CCC3)n1 [Galunisertib] | > 1000 | > 1000 | > 1000 | > 1000 |  | > 1000 | > 1000 | > 1000 | > 1000 | > 1000 | > 1000 |  |  | > 1000
